These results are taken from US7998978B2 (Pfizer Inc., priority 2006, dated 2011).

Usually inhibition stands for the relative decrease from the control value, in per cent. By Ki is commonly meant a measure of affinity in units of concentration, obtained from inhibition or displacement. Read a low Ki as a stronger hold on the target.

One experiment deals with T1, JNK1α1 (Homo sapiens, UniProt P45983).
T1 construct: catalytic domain containing amino acids 1-364 and N-terminal hexahistidine tag; hexahistidine (His6) (N); made in house; host or cells: E. coli BL21 (DE3)
T1 sequence (P45983 1-364): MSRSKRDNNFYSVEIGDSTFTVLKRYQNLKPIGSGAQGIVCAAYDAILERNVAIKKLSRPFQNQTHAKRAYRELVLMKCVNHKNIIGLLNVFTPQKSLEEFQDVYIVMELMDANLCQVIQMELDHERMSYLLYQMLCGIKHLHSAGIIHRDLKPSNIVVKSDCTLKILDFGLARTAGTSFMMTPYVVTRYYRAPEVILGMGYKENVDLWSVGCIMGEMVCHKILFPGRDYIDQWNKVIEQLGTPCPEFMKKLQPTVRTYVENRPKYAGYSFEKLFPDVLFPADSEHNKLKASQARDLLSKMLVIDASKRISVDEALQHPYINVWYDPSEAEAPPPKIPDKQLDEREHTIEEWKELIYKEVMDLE
Put plainly: Coupled spectrophotometric (PK/LDH) JNK1α1 assay: % inhibition and Ki determination. The format is biochemical. To be noted: @1 uM; read-out: % Inhibition JNK-1. The essentials: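 Initial rates were taken from the absorbance decrease at 340 nm at 30° C. Ki was fitted with a tight-binding model over 11 concentrations (top 100 μM); single-point inhibition was tested at 1 or 10 μM.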
For the compound `Cc1cccc(CNC(=O)c2cccc3cnc(N[C@H]4CC[C@H](O)CC4)nc23)n1` [Example 481, 2-[(trans-4-hydroxycyclohexyl)amino]-N-[(6-methylpyridin-2-yl)methyl]quinazoline-carboxamide], the inhibition at 1 µM was determined as 14%.

Turning to `CC(C)Nc1ncc2ccc(C(=O)N[C@@H]3COC[C@H]3O)cc2n1` [Example 432, N-((3R,4S)-4-hydroxytetrahydrofuran-3-yl]-2-(isopropylamino)quinazoline-7-carboxamide], the inhibition at 1 µM stood at 15%.

Consider `CC(C)[C@@H](CO)NC(=O)c1ccc2cnc(NC3CCC3)nc2c1` [Example 424, 2-(cyclobutylamino)-N-[(1S)-1-(hydroxymethyl)-2-methylpropyl]quinazoline-7-carboxamide], for which the inhibition at 1 µM was determined as 22%.

Turning to `CCn1nc(C)c(CNC(=O)c2cccc3cnc(N[C@H]4CC[C@H](O)CC4)nc23)c1C` [Example 496, N-[(1-ethyl-3,5-dimethyl-1H-pyrazol-4-yl)methyl]-2-[(trans-4-hydroxycyclohexyl)amino]quinazoline-8-carboxamide], the inhibition at 1 µM was found to be 41%.

Regarding `Cc1cccc(CC(C)NC(=O)c2cccc3cnc(N[C@H]4CC[C@H](O)CC4)nc23)n1` (stereo partly drawn) [Example 475, 2-[(trans-4-hydroxycyclohexyl)amino]-N-[1-methyl-2-(6-methylpyridin-2-yl)ethyl]quinazoline-8-carboxamide], the inhibition at 1 µM is 11%.

In the case of `C[C@@H](NC(=O)c1cccc2cnc(N[C@H]3CC[C@H](O)CC3)nc12)[C@@H](O)c1ccccc1` [Example 472, 2-[(trans-4-hydroxycyclohexyl)amino]-N-[(1R,2S)-2-hydroxy-1-methyl-2-phenylethyl]quinazoline-8-carboxamide], the inhibition at 1 µM was 25%.

As for `O=C(N[C@@H]1COC[C@H]1O)c1ccc2cnc(NC3CCCC3)nc2c1` [Example 435, 2-(cyclopentylamino)-N-[(3R,4S)-4-hydroxytetrahydrofuran-3-yl]quinazoline-7-carboxamide], the inhibition at 1 µM was found to be 22%.

`O=C(NCCc1ccccn1)c1cccc2cnc(N[C@H]3CC[C@H](O)CC3)nc12` [Example 469, 2-[(trans-4-hydroxycyclohexyl)amino]-N-(2-pyridin-2-ylethyl)quinazoline-8-carboxamide]: the inhibition at 1 µM was found to be 10%.

For `O=C(NCCc1cn2ccccc2n1)c1cccc2cnc(N[C@H]3CC[C@H](O)CC3)nc12` [Example 494, 2-[(trans-4-hydroxycyclohexyl)amino]-N-(2-imidazol[1,2-a]pyridin-2-ylethyl)quinazoline-8-carboxamide], the inhibition at 1 µM stood at 16%.

Take `COC[C@H]1CCC[C@H]1NC(=O)c1cccc2cnc(N[C@H]3CC[C@H](O)CC3)nc12` [Example 506, 2-[(trans-4-hydroxycyclohexyl)amino]-N-[(1R,2S)-2-(methoxymethyl)cyclopentyl]quinazoline-8-carboxamide]: the inhibition at 1 µM was 37%.

As for `CC(C)Nc1ncc2ccc(C(=O)N[C@H](CO)C(C)C)cc2n1` [Example 425, N-[(1S)-1-(hydroxymethyl)-2-methylpropyl]-2-(isopropylamino)quinazoline-7-carboxamide], the inhibition at 1 µM is 11%.

Turning to `O=C(N[C@@H](CO)c1ccccc1)c1cccc2cnc(N[C@H]3CC[C@H](O)CC3)nc12` [Example 471, 2-[(trans-4-hydroxycyclohexyl)amino]-N-[(1R)-2-hydroxy-1-phenylethyl]quinazoline-8-carboxamide], the inhibition at 1 µM was found to be 19%.

The experiment is the same for the next values; noted with them: JNK-1.
Compound `CC[C@@H](CO)NC(=O)c1ccc2cnc(NC3CCCCC3)nc2c1` [Example 388, 2-(cyctohexylamino)-N-[(1S)-1-(hydroxymethyl)propyl]quinazoline-7-carboxamide] displayed a Ki of 0.303 µM.

In the case of `CC(C)NC(=O)c1ccc2cnc(N[C@H]3CC[C@H](O)CC3)nc2c1` [Example 64, 2-[(trans-4-hydroxycyclohexyl)amino]-N-isopropylquinazoline-7-carboxamide], the Ki was found to be 0.456 µM.

In the case of `Cc1ccc2cnc(N[C@H]3CC[C@H](O)CC3)nc2c1OCC(=O)NC1CCS(=O)(=O)C1` (stereo partly drawn) [Example 211, N-(1,1-dioxidotetrahydro-3-thienyl)-2-({2-[(trans-4-hydroxycyclohexyl)amino]-7-methylquinazolin-8-yl}oxy)acetamide], the Ki was found to be 1.03 µM.

For `O=C(NCc1ccccc1)c1cccc2cnc(N[C@H]3CC[C@H](O)CC3)nc12` [Example 124, N-benzyl-2-[(trans-4-hydroxycyclohexyl)amino]quinazoline-8-carboxamide], the affinity corresponds to a Ki of 0.41 µM.

With `CC(C)(C)OC(=O)NC(CC(=O)Nc1cc2cc(-c3cn[nH]c3)ccc2cn1)c1c(F)cccc1F` (stereo not drawn) [Example 31, tert-butyl (1-(2,6-difluorophenyl)-3-oxo-3-{[6-(1H-pyrazol-4-yl)isoquinolin-3-yl]amino}propyl)carbamate], the affinity corresponds to a Ki of 0.003 µM.

Compound `O=C(Cn1nc(C(F)(F)F)c2c1CCCC2)Nc1cc2cc(-c3cn[nH]c3)ccc2cn1` [Example 37, N-[6-(1H-pyrazol-4-yl)isoquinolin-3-yl]-2-[3-(trifluoromethyl)-4,5,6,7-tetrahydro-1H-indazol-1-yl]acetamide] gave a Ki of 0.002 µM.

Regarding `CCC[C@@H](CO)NC(=O)c1ccc2cnc(NC3CCCCC3)nc2c1` [Example 376, 2-(cyclohexylamino)-N-[(1S)-1-(hydroxymethyl)butyl]quinazoline-7-carboxamide], the inhibition constant (Ki) amounted to 0.139 µM.

Consider `C[C@@H](CO)NC(=O)c1cccc2cnc(N[C@H]3CC[C@H](NS(C)(=O)=O)CC3)nc12` [Example 131, N-[(1S)-2-hydroxy-1-methylethyl]-2-({trans-4-[(methylsulfonyl)amino]cyclohexyl}amino)quinazoline-8-carboxamide], for which the affinity, expressed as Ki, was 0.077 µM.

For the compound `FCCN[C@H]1CC[C@H](Nc2ncc3cccc(OC4CCOC4)c3n2)CC1` (stereo partly drawn) [Example 194, trans-N-(2-fluoroethyl)-N′-[8-(tetrahydrofuran-3-yloxy)quinazolin-2-yl]cyclohexane-1,4-diamine], the affinity corresponds to a Ki of 1.46 µM.

`N[C@H]1CC[C@H](Nc2ncc3cccc(OC4CCOC4)c3n2)CC1` (stereo partly drawn) [Example 177, trans-N-[8-(tetrahydrofuran-3-yloxy)quinazolin-2-yl]cyclohexane-1,4-diamine] came in with a Ki of 0.914 µM. This Ki lies about 1.6-fold lower than the previous one.

In the case of `O[C@H]1CC[C@H](Nc2ncc3ccc(O[C@@H]4CCOC4)cc3n2)CC1` [Example 159, trans-4-({7-[(3R)-tetrahydrofuran-3-yloxy]quinazolin-2-yl}amino)cyclohexanol], the affinity corresponds to a Ki of 0.19 µM.

In the case of `COC(=O)N1CCC(c2cccc3cnc(N[C@H]4CC[C@H](O)CC4)nc23)C1` (stereo partly drawn) [Example 196, methyl 3-{2-[(trans-4-hydroxycyclohexyl)amino]quinazolin-8-yl}pyrrolidine-1-carboxylate], the Ki is 0.056 µM.

Compound `O=C(N[C@H](CO)c1ccccc1)c1ccc2cnc(NC3CCCC3)nc2c1` [Example 384, 2-(cyclopentylamino)-N-[(1S)-2-hydroxy-1-phenylethyl]quinazoline-7-carboxamide] registered an inhibitory constant (Ki) of 0.257 µM. This Ki lies about 4.6-fold higher than the previous one.

Turning to `CC(=O)N[C@H]1CC[C@H](Nc2ncc3cccc(OC4CCOCC4)c3n2)CC1` [Example 179, N-(trans-4-{[8-(tetrahydro-2H-pyran-4-yloxy)quinazolin-2-yl]amino}cyclohexyl)acetamide], the affinity corresponds to a Ki of 0.665 µM.

The compound `O=C(NC(CO)c1ccccc1Cl)c1ccc2cnc(N[C@H]3CC[C@H](O)CC3)nc2c1` (stereo partly drawn) [Example 99, N-[1-(2-chlorophenyl)-2-hydroxyethyl]-2-[(trans-4-hydroxycyclohexyl)amino]quinazoline-7-carboxamide] showed a Ki of 0.018 µM. Compared with the last compound, the Ki is about 37-fold lower.

`O=C(NC1(CO)CCCC1)c1ccc2cnc(N[C@H]3CC[C@H](O)CC3)nc2c1` [Example 400, 2-[(trans-4-hydroxycyclohexyl)amino]-N-[1-(hydroxymethyl)cyclopentyl]quinazoline-7-carboxamide] displayed a Ki of 0.478 µM.

`O=C(NCC1(O)CCC1)c1cccc2cnc(N[C@H]3CC[C@H](O)CC3)nc12` [Example 129, N-[(1-hydroxycyclobutyl)methyl]-2-[(trans-4-hydroxycyclohexyl)amino]quinazoline-8-carboxamide] had a Ki of 0.13 µM. This Ki lies about 3.7-fold lower than the previous one.

On to `CCN[C@H]1CC[C@H](Nc2ncc3cccc(OC4CCOC4)c3n2)CC1` (stereo partly drawn) [Example 192, trans-N-ethyl-N′-[8-(tetrahydrofuran-3-yloxy)quinazolin-2-yl]cyclohexane-1,4-diamine], for which affinity was put at a Ki of 1.13 µM.

`O=C(N[C@H](CO)CC1CCCCC1)c1ccc2cnc(NC3CCCCC3)nc2c1` [Example 393, 2-(cyclohexylamino)-N-[(1S)-2-cyclohexyl-1-(hydroxymethyl)ethyl]quinazoline-7-carboxamide]: the affinity, expressed as Ki, was 0.387 µM.

For `CCC[C@@H](CO)NC(=O)c1ccc2cnc(N[C@H]3CC[C@H](O)CC3)nc2c1` [Example 377, 2-[(trans-4-hydroxycyclohexyl)amino]-N-[(1S)-1-(hydroxymethyl)butyl]quinazoline-7-carboxamide], the Ki was found to be 0.147 µM.

Compound `CN(C)CCOc1ccc2cnc(N[C@H]3CC[C@H](O)CC3)nc2c1` [Example 157, trans-4-({7-[2-(dimethylamino)ethoxy]quinazolin-2-yl}amino)cyclohexanol] gave an inhibitory constant (Ki) of 1.78 µM.

`CS(=O)(=O)N[C@H]1CC[C@H](Nc2ncc3cccc(C(=O)N[C@@H]4CCC[C@H]4O)c3n2)CC1` (relative stereo) [Example 137, N-[(trans)-2-hydroxycyclopentyl]-2-({trans-4-[(methylsulfonyl)amino]cyclohexyl}amino)quinazoline-8-carboxamide] came in with a Ki of 0.263 µM.

Compound `COc1ccc2c(c1)CCC2C(=O)Nc1cc2cc(-c3cn[nH]c3)ccc2cn1` (stereo not drawn) [Example 47, 5-methoxy-N-[6-(1H-pyrazol-4-yl)isoquinolin-3-yl]indane-1-carboxamide] came in with a Ki of more than 0.05 µM.

In turn, `CC[C@H](C)[C@@H](CO)NC(=O)c1ccc2cnc(NC(C)C)nc2c1` [Example 409, N-[(1S,2S)-1-(hydroxymethyl)-2-methylbutyl]-2-(isopropylamino)quinazoline-7-carboxamide] showed a Ki of 0.772 µM.
